In PubChem BioAssay AID1259407 (Chemical Carcinogenesis Research Information System (CCRIS), 2018):
Active and inactive are the calls of the source. How the calls were made is not given here.

Test system: CCRIS mutagenicity, Ames/micronucleus/aberration tests
Test: CCRIS mutagenicity studies

Structure (SMILES): CC1=C(O)C(=O)CC1
- mutagenic call (Test System: AMES SALMONELLA TYPHIMURIUM, Strain/Indicator: TA98, Metabolic Activation: NONE, Method: PREINCUBATION): inactive; negative
- mutagenic call (Test System: AMES SALMONELLA TYPHIMURIUM, Strain/Indicator: TA98, Metabolic Activation: RAT, LIVER, S-9, AROCLOR 1254, Method: PREINCUBATION): inactive; negative
- mutagenic call (Test System: AMES SALMONELLA TYPHIMURIUM, Strain/Indicator: TA100, Metabolic Activation: NONE, Method: PREINCUBATION): inactive; negative
- mutagenic call (Test System: AMES SALMONELLA TYPHIMURIUM, Strain/Indicator: TA100, Metabolic Activation: RAT, LIVER, S-9, AROCLOR 1254, Method: PREINCUBATION): inactive; negative
- mutagenic call (Test System: AMES SALMONELLA TYPHIMURIUM, Strain/Indicator: TA102, Metabolic Activation: NONE, Method: PREINCUBATION): inactive; negative
- mutagenic call (Test System: AMES SALMONELLA TYPHIMURIUM, Strain/Indicator: TA102, Metabolic Activation: RAT, LIVER, S-9, AROCLOR 1254, Method: PREINCUBATION): inactive; negative

Structure (SMILES): Fc1cc2cccnc2c(F)c1F
- mutagenic call (Test System: AMES SALMONELLA TYPHIMURIUM, Strain/Indicator: TA100, Metabolic Activation: RAT LIVER S-9, PHENOBARBITAL AND 5,6-BENZOFLAVONE, Method: PREINCUBATION): inactive; negative

Structure (SMILES): Nc1ccc(S(N)(=O)=O)cc1
- mutagenic call (End Point: IN VITRO CHROMOSOMAL ABERRATIONS, Test System: CHINESE HAMSTER OVARY CELLS, Metabolic Activation: NONE): inactive; negative
- mutagenic call (End Point: IN VITRO CHROMOSOMAL ABERRATIONS, Test System: CHINESE HAMSTER OVARY CELLS, Metabolic Activation: RAT, LIVER, S-9, AROCLOR 1254): inactive; negative
- mutagenic call (Test System: AMES SALMONELLA TYPHIMURIUM, Strain/Indicator: TA98, Metabolic Activation: HAMSTER, LIVER, S-9, AROCLOR 1254, Method: STANDARD PLATE): inactive; negative
- mutagenic call (Test System: AMES SALMONELLA TYPHIMURIUM, Strain/Indicator: TA98, Metabolic Activation: NONE, Method: STANDARD PLATE): inactive; negative
- mutagenic call (Test System: AMES SALMONELLA TYPHIMURIUM, Strain/Indicator: TA98, Metabolic Activation: RAT, LIVER, S-9, AROCLOR 1254, Method: STANDARD PLATE): inactive; negative
- mutagenic call (Test System: AMES SALMONELLA TYPHIMURIUM, Strain/Indicator: TA100, Metabolic Activation: HAMSTER, LIVER, S-9, AROCLOR 1254, Method: STANDARD PLATE): inactive; negative
- mutagenic call (Test System: AMES SALMONELLA TYPHIMURIUM, Strain/Indicator: TA100, Metabolic Activation: NONE, Method: STANDARD PLATE): inactive; negative
- mutagenic call (Test System: AMES SALMONELLA TYPHIMURIUM, Strain/Indicator: TA100, Metabolic Activation: RAT, LIVER, S-9, AROCLOR 1254, Method: STANDARD PLATE): inactive; negative
- mutagenic call (Test System: AMES SALMONELLA TYPHIMURIUM, Strain/Indicator: TA1535, Metabolic Activation: HAMSTER, LIVER, S-9, AROCLOR 1254, Method: STANDARD PLATE): inactive; negative
- mutagenic call (Test System: AMES SALMONELLA TYPHIMURIUM, Strain/Indicator: TA1535, Metabolic Activation: NONE, Method: STANDARD PLATE): inactive; negative
- mutagenic call (Test System: AMES SALMONELLA TYPHIMURIUM, Strain/Indicator: TA1535, Metabolic Activation: RAT, LIVER, S-9, AROCLOR 1254, Method: STANDARD PLATE): inactive; negative
- mutagenic call (Test System: AMES SALMONELLA TYPHIMURIUM, Strain/Indicator: TA1537, Metabolic Activation: HAMSTER, LIVER, S-9, AROCLOR 1254, Method: STANDARD PLATE): inactive; negative
- mutagenic call (Test System: AMES SALMONELLA TYPHIMURIUM, Strain/Indicator: TA1537, Metabolic Activation: NONE, Method: STANDARD PLATE): inactive; negative
- mutagenic call (Test System: AMES SALMONELLA TYPHIMURIUM, Strain/Indicator: TA1537, Metabolic Activation: RAT, LIVER, S-9, AROCLOR 1254, Method: STANDARD PLATE): inactive; negative
- mutagenic call (Test System: AMES SALMONELLA TYPHIMURIUM, Strain/Indicator: TA1538, Metabolic Activation: HAMSTER, LIVER, S-9, AROCLOR 1254, Method: STANDARD PLATE): inactive; negative
- mutagenic call (Test System: AMES SALMONELLA TYPHIMURIUM, Strain/Indicator: TA1538, Metabolic Activation: NONE, Method: STANDARD PLATE): inactive; negative
- mutagenic call (Test System: AMES SALMONELLA TYPHIMURIUM, Strain/Indicator: TA1538, Metabolic Activation: RAT, LIVER, S-9, AROCLOR 1254, Method: STANDARD PLATE): inactive; negative
- mutagenic call (Test System: MOUSE LYMPHOMA, Strain/Indicator: L5178Y (TK+/TK-), Metabolic Activation: NONE, Method: SUSPENSION/PLATE): inactive; negative
- mutagenic call (Test System: MOUSE LYMPHOMA, Strain/Indicator: L5178Y (TK+/TK-), Metabolic Activation: RAT, LIVER, S-9, AROCLOR 1254, Method: SUSPENSION/PLATE): inactive; negative
- mutagenic call (Test System: Mouse lymphoma, Strain/Indicator: L5178Y (tk+/tk-), Metabolic Activation: None, Method: Suspension/plate): inactive; negative
- mutagenic call (Test System: Mouse lymphoma, Strain/Indicator: L5178Y (tk+/tk-), Metabolic Activation: Rat, Liver, S-9, Aroclor 1254, Method: Suspension/plate): inactive; negative

Structure (SMILES): CCC[C@@H]1C[C@@H](C(=O)N[C@@H]([C@H]2O[C@H](SC)[C@H](O)[C@@H](O)[C@H]2O)[C@@H](C)O)N(C)C1
- mutagenic call (End Point: AMES SALMONELLA TYPHIMURIUM, Test System: TA98, Metabolic Activation: NONE, Method: STANDARD PLATE): active; positive
- mutagenic call (End Point: AMES SALMONELLA TYPHIMURIUM, Test System: TA100, Metabolic Activation: NONE, Method: STANDARD PLATE): active; positive
